# From patent EP2292587A1, “PHARMACEUTICAL COMPOSITION FOR INHIBITING THE TRANSCRIPTION FACTOR INDUCIBLE BY HYPOXIA, MODULATORS OF PATHOLOGICAL PROCESSES OF ANGIOGENESIS, ONCOGENESIS, INFLAMMATION, APOPTOSIS, AND CELLULAR THERAPY” (Fundacion De La Comunidad Valenciana Centro De …, priority 2008, dated 2009)
# Tests used:
# [1] = tested on: ATR; experiment: activation kinetics of ATR (Western blot), HCT116/p53-/-; type: cell-based, human; conditions: 0.5 µM, after 1 hour
# Excerpt: To determine the degree of involvement of p53 in the possible effects caused by FM19G11, a HCT116 colon cancer cell line with expression of p53 and the same HCT116 line in which p53 was inactivated by homologous recombination were used (Bunz, F, Dutriaux, A, Lengauer, C, Waldman, T, Zhou, S, Brown, JP et al., (1998) Requirement for p53 and p21 to sustain G2 arrest after DNA damage. Science 282: 1497-501; Bunz, F, Hwang, PM, Torrance, C, Waldman, T, Zhang, Y, Dillehay, L et al., (1999) Disruption of p53 in human cancer cells alters the responses to therapeutic agents. J Clin Invest 104: 263-9.). The HCT116/p53^+/+ and HCT116/p53^-/- cells were exposed to FM19G11 (0.5 µM) at different times, the phosphorylation (activation) pattern of the ATR protein and of p53 which can be phosphorylated by ATR (Tibbetts, RS, Brumbaugh, KM, Williams, JM, Sarkaria, JN, Cliby, WA, Shieh, SY et al., (1999) A role for ATR in the DNA damage-induced phosphorylation of p53. Genes Dev 13: 152-7.), in p53-proficient HCT116 cells, as well as ATR in p53-deficient cells being analyzed (Figure 23). […] This quick activation of ATR coincides with that of p53 in HCT116/p53^+/+ cells after 1 hour of treatment with FM19G11 (0.5 µM), but the activation of p53 remains virtually on the expression of cells without drug, for the different times analyzed.
# [2] = tested on: HIF-1α; experiment: Western blot of HIF-1alpha in dental pulp stem cells; type: cell-based, human; conditions: 0.5 µM, physical hypoxia
# Excerpt: The culture medium used was Low-Glucose DMEM supplemented with 10% fetal bovine serum. The human dental pulp mesenchymal stem line [Gronthos S, et al., "Postnatal human dental pulp stem cells (DPSCs) in vitro and in vivo" Proc Natl Acad Sci U S A, 2000 Dec 5; 97(25):13625-30.; Gronthos S et al.,." Stem cell properties of human dental pulp stem cells" J Dent Res, 2002 Aug; 81(8):531-5], obtained from human third molars from adults (19-29 years of age), was provided by the Cardioregeneration Dept. of the CIPF. The cells were seeded at a density of 2000 cells/cm^2, and when they reached a 90% confluence they were subcultured again by means of trypsinization.
# The dental pulp cells were seeded at 2000 cells/cm^2 in 21 cm^2 plates. […]
# [3] = tested on: Sox2 and Oct3/4; experiment: qPCR of Sox2 and Oct3/4 in H9 hESCs; type: cell-based, human; conditions: 500 nM, 48 hours, hypoxia (1% O2)
# Description: Culture of the H9 human embryonic cell (hESC) line: To maintain and propagate the hESC line (up to no more than 70 passes), the hESCs are cultured on a monolayer of mouse fibroblasts inactivated with mitomycin C (Sigma Aldrich, Sweden) (Thomson et al., [1998]). To study the transcriptional changes of SOx2 and Oct3/4, the undifferentiated colonies of hESCs were transferred, by mechanical dissociation, to a culture plate coated with a thin layer of Matrigel® and are cultured in the presence of conditioned medium. The conditioned medium is obtained from the culture of confluent and inactivated mouse fibroblasts, seeded on plates coated with gelatin (0.1 %; Sigma).
# Using the experimental conditions described in Example 35, the procedure was the same including in this case the TaqMan probes for human Sox2, Oct3/4 and GAPDH (Sox2: Hs01053049_s1; Oct3/4:Hs01895061_u1; GAPDH: Hs99999905_m1). […] The expression levels of both messenger RNAs are induced under hypoxic conditions versus normoxic conditions (high oxygen culture conditions ~ 20% O2),
# [4] = tested on: medaka (Oryzias latipes) embryos; experiment: toxicity on medaka embryos; type: in vivo
# Description: In the first place, for the zebrafish embryos, various experiments were performed with 10, 6 and 4 embryos per well in a volume of 100 microl, in early (between 1 and 8) and late (more than 20) stages of 1 x Yamamoto buffer, culturing the embryos at 26°C for 24 hours, and the compound FM19G11 was subsequently added at concentrations of 10 microM and 50 microM with negative controls without additives to analyze the endogenous mortality of the embryos and with 1% and 5% DMSO (solvent of the compound) to analyze the mortality of the solvent. In all the cases the solvent induced a high lethality between 60% and 90%.
# The same experiments were performed using medaka embryos for which DMSO has not lethal effects at concentrations less than 5%. Six embryos per well, a final volume of 100 µl and independent experiments with embryos in blastula and neurula stages were used.
# To prevent the possibility that FM19G11 may not be traversing the protective layer of the embryo (chorion), the compound at a concentration of 0.5 mM was microinjected into the chorionic space (between the embryo and the chorion). Experiment 1: n=15, 20% induced mortality, DMSO control = 0%. The result was the same, no anomaly being observed in the development of the embryo, nor any effect on the viability of the injected embryos. The images of Figure 19 show medaka embryos subjected to the treatment with FM19G11 at 50 microM for 4 days (A) 10 medaka embryos in a well of a multi-well plate; B and C, photos of embryos treated with 50 microM FM19G11 for 1 day; and D a photo of a medaka embryo which was not treated with the compound.
smiles,measurement,setting,value
"Cc1ccc(C(=O)COC(=O)c2cccc(NC(=O)c3ccc([N+](=O)[O-])cc3[N+](=O)[O-])c2)cc1 [FM19G11, 2-oxo-2-(p-tolyl)ethyl 3-((2,4-dinitro)benzamido)benzoate]",phosphorylation of ATR,[1],quick increase
same,expression of HIF-1α,[2],inhibited
same,expression of both Sox2 and Oct3/4 (mRNA),[3],significantly inhibits
same,induced mortality,"[4]; 0.5 mM microinjected into the chorionic space, n=15",20%
same,viability of the embryos,[4]; 10 microM and 50 microM in the well,does not affect the viability
same,lethality,"[4]; 10 microM and 50 microM in the well, blastula and neurula stages",no significant lethality
